According to ChEMBL document CHEMBL3785022, “Pharmacokinetics of cyclophosphamide and alkylating activity in man after intravenous and oral administration” (Br J Clin Pharmacol, 1979):

How the values were obtained:
[1] = Renal clearance in lymphoma patient (7 patients); conditions: human, in vivo
[2] = Apparent volume of distribution of central compartment in iv dosed lymphoma patient (6 patients) by two-compartmental open model; conditions: human, in vivo
[3] = Drug excretion in po dosed lymphoma patient (7 patients) assessed as unchanged parent compound in urine; conditions: human
[4] = Apparent volume of distribution during terminal log-linear elimination phase in iv dosed lymphoma patient (6 patients) by two-compartmental open model; conditions: human, in vivo
[5] = First order rate constant for slow elimination phase in iv dosed lymphoma patient (6 patients) by two-compartmental open model; conditions: human, in vivo
clinical [6] = conditions: human, in vivo, iv, 11.3 mg/kg
Description: Elimination half life in lymphoma patient at 11.3 mg/kg, iv by one compartment open model

[7] = Clearance in po dosed lymphoma patient (7 patients) by one compartment open model; conditions: human, in vivo
clinical [8] = conditions: human, in vivo, iv, 11.3 mg/kg; remark: listed apart in the source
Description: Elimination rate constant in lymphoma patient at 11.3 mg/kg, iv by one compartment open model

[9] = Elimination rate constant in po dosed lymphoma patient (7 patients) by one compartment open model; conditions: human, in vivo
[10] = Elimination rate constant from central compartment in iv dosed lymphoma patient (6 patients) by two-compartmental open model; conditions: human, in vivo
[11] = Half life in po dosed lymphoma patient (7 patients) by one compartment open model; conditions: human, in vivo
clinical [12] = conditions: human, in vivo, iv, 11.3 mg/kg; remark: listed apart in the source
Description: Clearance in lymphoma patient at 11.3 mg/kg, iv by one compartment open model

clinical [13] = conditions: human, plasma, iv, 11.3 mg/kg
[14] = Extraction ratio in lymphoma patient (7 patients); conditions: human, in vivo
clinical [15] = conditions: human, in vivo, iv, 11.3 mg/kg; remark: listed apart in the source
Description: Volume of distribution in lymphoma patient at 11.3 mg/kg, iv by one compartment open model

`O=P1(N(CCCl)CCCl)NCCCO1` (stereo not given) [CYCLOPHOSPHAMIDE ANHYDROUS] gave a CL renal [1] of 0.08 mL/min/kg, a Vd [2] of 0.38 L/kg and a dose excreted [3] of 1.8%. The Vd [4] was 0.71 L/kg, the k el [5] was 2.53e-05 s⁻¹ and the half-life (clinical [6]) was 6.42 h. For the same compound, the CL/F [7] was 1.55 mL/min/kg, the k el (clinical [8]) was 3e-05 s⁻¹ and the k el [9] was 6.03e-05 s⁻¹. For the same compound, the k el [10] was 5.56e-05 s⁻¹, the half-life [11] was 3.93 h and the clearance (clinical [12]) was 1.62 mL/min/kg. The C0 (clinical [13]) was 12500 ng/mL, the hepatic extraction ratio [14] was 0.25 and the Vd (clinical [15]) was 0.9 L/kg.
